Experimental data published in ChEMBL document CHEMBL5120827, “Metabolomics and Genomics Approach for the Discovery of Serrawettin W2 Lipopeptides from Serratia marcescens NP2” (J Nat Prod, 2022).

Tested on: Enterococcus faecium
Assay: Antibacterial activity against clinical isolate Enterococcus faecium assessed as reduction in microbial growth by broth microdilution
Type: functional, organism-based

| MIC [µg/mL] | SMILES | IC50 [µg/mL] |
| --- | --- | --- |
| > 125 | CCCCCCCCCC1CC(=O)N[C@@H](CC(C)C)C(=O)N[C@@H](CO)C(=O)N[C@@H]([C@@H](C)O)C(=O)N[C@@H](Cc2ccccc2)C(=O)N[C@@H](C(C)C)C(=O)O1 (stereo not given in full) | – |
| > 125 | CCCCCC1CC(=O)N[C@H](CC(C)C)C(=O)N[C@@H](CO)C(=O)N[C@@H]([C@@H](C)O)C(=O)N[C@@H](Cc2ccccc2)C(=O)N[C@@H](CC(C)C)C(=O)O1 (stereo not given in full) | – |
| > 125 | CCCCCC1CC(=O)N[C@H](CC(C)C)C(=O)N[C@@H](CO)C(=O)N[C@@H]([C@@H](C)O)C(=O)N[C@@H](Cc2ccccc2)C(=O)N[C@@H](C(C)C)C(=O)O1 (stereo not given in full) | – |
| 15.6 | CCCCCCCC1CC(=O)N[C@H](CC(C)C)C(=O)N[C@@H](CO)C(=O)N[C@@H]([C@@H](C)O)C(=O)N[C@@H](Cc2ccccc2)C(=O)N[C@@H](CC(C)C)C(=O)O1 (stereo not given in full) | 8.4 |
| 62.5 | CCCCCC1CC(=O)N[C@H](CC(C)C)C(=O)N[C@@H](CO)C(=O)N[C@@H]([C@@H](C)O)C(=O)N[C@@H](Cc2ccccc2)C(=O)N[C@@H]([C@@H](C)CC)C(=O)O1 (stereo not given in full) | 53.1 |
| > 125 | CCCCCCCC1CC(=O)N[C@@H](CC(C)C)C(=O)N[C@@H](CO)C(=O)N[C@@H]([C@@H](C)O)C(=O)N[C@@H](Cc2ccccc2)C(=O)N[C@@H](C(C)C)C(=O)O1 (stereo not given in full) | – |
| > 125 | CCCCCCCCCC1CC(=O)N[C@H](CC(C)C)C(=O)N[C@@H](CO)C(=O)N[C@@H]([C@@H](C)O)C(=O)N[C@@H](Cc2ccccc2)C(=O)N[C@@H]([C@@H](C)CC)C(=O)O1 (stereo not given in full) | – |
| > 125 | CCCCCCCCCC1CC(=O)N[C@H](CC(C)C)C(=O)N[C@@H](CO)C(=O)N[C@@H]([C@@H](C)O)C(=O)N[C@@H](Cc2ccccc2)C(=O)N[C@@H](CC(C)C)C(=O)O1 (stereo not given in full) | – |
